Data on four compounds can be found in article PMC11224556, “Next-generation of BBQ analogues that selectively target breast cancer” (Frontiers in Chemistry, 2024).

For data set [1], the system named is BT20 breast cancer cells. Also noted: method as in Gilbert et al., 2020. The note with it: BT20, Breast (TN); MTT, 72 h; ref Gilbert et al., 2020; cited from earlier work.
For data set [2], the system named is SKBR3 breast cancer cells. Set-up: method as in Gilbert et al., 2020. The note with it: SKBR3, Breast (HER2); MTT, 72 h; ref Gilbert et al., 2020; cited from earlier work.
For data set [3], the system named is BE2-C (neuronal) cells. Set-up: method as in Gilbert et al., 2020. To be noted: Neuron, MTT, 72 h, ref Gilbert et al., 2020; cited from earlier work.
Data set [4] has as its system H460 (lung, ER+) cells. Also noted: method as in Gilbert et al., 2020. To be noted: MTT, 72 h, ref Gilbert et al., 2020; cited from earlier work.
In data set [5] the test system is ZR-75-1 breast cancer cells. Set-up: method as in Gilbert et al., 2020. The note with it: ZR-75-1, Breast (ER/PR); MTT, 72 h; ref Gilbert et al., 2020; cited from earlier work.
Data set [6] deals with A2780 (ovary) cells. Also noted: method as in Gilbert et al., 2020. To be noted: MTT, 72 h, ref Gilbert et al., 2020; cited from earlier work.
Data set [7] has as its system MDA-MB-468 breast cancer cells. Set-up: method as in Gilbert et al., 2020. To be noted: MDA-MB-468, Breast (TN); MTT, 72 h; ref Gilbert et al., 2020; cited from earlier work.
In data set [8] the test system is T47D breast cancer cells. Also noted: method as in Gilbert et al., 2020. To be noted: Breast (ER/PR), MTT, 72 h, ref Gilbert et al., 2020; cited from earlier work.
For data set [9], the system named is MCF-7 breast cancer cells. Also noted: method as in Gilbert et al., 2020. To be noted: MCF-7, Breast (ER); MTT, 72 h; ref Gilbert et al., 2020; cited from earlier work.
The subject of data set [10] is U87 (brain) cells. Also noted: method as in Gilbert et al., 2020. To be noted: U87, Brain (GBM); MTT, 72 h; ref Gilbert et al., 2020; cited from earlier work.
In data set [11] the test system is SJ-G2 (brain) cells. Set-up: method as in Gilbert et al., 2020. The note with it: SJ-G2, Brain (GBM); MTT, 72 h; ref Gilbert et al., 2020; cited from earlier work.
Data set [12] has as its system Du145 (prostate) cells. Set-up: method as in Gilbert et al., 2020. The note with it: MTT, 72 h, ref Gilbert et al., 2020; cited from earlier work.
For data set [13], the system named is MCF10A normal breast cells. Nature of the data set: MTT growth inhibition with CYP1 (αNF) or SULT1A1 (quercetin) inhibitor. The data set is classed as cell-based, human. To be noted: 3 and 5 at 0.1 µM, αNF 10 µM, quercetin 5 µM, 72 h (Supp Figure 1). As for the experimental part:
This analysis confirms that both CYP1 and SULT1A1, activity is needed to induce the growth inhibitory effect of the BBQ analogue.
Cells in logarithmic growth were transferred to 96-well plates. Cytotoxicity was determined by plating cells in duplicate in 100 μL medium at a density of 2,500–4,000 cells/well in 96 well plates. On day 0, (24 h after plating) when the cells were in logarithmic growth 100 μL medium with or without the test agent was added to each well. After 72 h drug exposure growth inhibitory effects were evaluated using the MTT (3-[4,5-dimethylthiazol-2-yl]-2,5-diphenyltetrazolium bromide) assay with absorbance read at 540 nm. An eight-point dose response curve was produced, using MS Excel software. From these dose-response curves, the GI50 value was calculated, representing the drug concentration at which cell growth is 50% inhibited based on the difference between the optical density values on day 0 and those at the end of drug exposure ([Bradshaw et al., 2008]; [Zhang et al., 2009]). Each data point was conducted in duplicate and the mean ± S.E.M. calculated from four to five replicates (n = 4 or 5), which were performed on separate occasions and separate cell line passages. Where shown, significant test results were determined using T-test analysis at p < 0.01 and p < 0.05 with a two tail distribution.
Supp Figure 1. CYP1 and SULT1A1 inhibition ameliorates the effect of 3 and 5. Growth inhibition (72 h, MTT assay) of 3 and 5 (0.1 µM) in the presence of the CYP1 family inhibitor, α-naphthoflavone (αNF, 10 µM) and SULT1A1 inhibitor, quercetin (qu, 5 µM) in (A) MDA-MB-468 breast cancer cells and (B) MCF10A normal breast cells. Significant differences are at the P < 0.01 ** level, using a paired T-test with a two-tailed distribution.

Data set [14] relates to AhR mRNA. Nature of the data set: Gene expression analysis (qPCR) in MDA-MB-468 cells. In kind it is cell-based, human. To be noted: 1 μM and the GI50 value, 6 h. On the procedure:
(§1) These analogues were specifically chosen because they were synthesised without the production of regioisomers, their structural differences are small while their biological differences are large, c.f. […] Neither analogue altered the expression of SULT1A1 (Figure 4D).
(§2) Gene expression was examined in MDA-MB-468 cells following 6 h treatment. Total RNA was extracted using the RNeasy Mini Kit (Qiagen) according to the manufacturer’s instructions. One µg of RNA was reverse transcribed using the QuanitTect Reverse Transcription Kit (Qiagen) according to the manufacturer’s instructions. Rotor-Gene SYBR Green PCR Kit (Qiagen) was used to perform qPCR on a Rotor-Gene 3,000 Thermo-Cycler Instrument using β2-microglobulin as a housekeeping gene (Qiagen). The primer sequences were purchased from Qiagen as follows: AhR (QT02422938), CYP1A1 (QT00012341), CYP1B1 (QT00209496), SULT1A1 (QT01665489), and β2M (QT00088935). HotStar Taq activation (95 °C for 5 min) was followed by 40 cycles of denaturation (95 °C for 5 s), and annealing/extension (60 °C for 10 s). The comparative Ct value method was used for data analysis. Results are presented as the mean ± standard error of the mean (SEM) of analysis conducted in duplicate and repeated on two separate occasions. Significant test results were determined using T-test analysis at p < 0.01 with a two tail distribution.

Data set [15] has as its system CYP1A1 mRNA. The data set is described as above. In kind it is cell-based, human. The note with it: 6 h. On the procedure: as §1, §2
Data set [16] concerns CYP1B1 mRNA. The description is as above. In kind it is cell-based, human. The note with it: 1.0 μM, 6 h. On the procedure:
as §1, §2

Turning to `O=c1c2cccc3cccc(c4n1Cc1ccccc1N=4)c32` [Compound 13, 7H,9H-benzo[4,5]isoquinolino[1,2-b]quinazolin-7-one], the melting point fell in the range of 256 to 258 °C.
Regarding `Nc1ccccc1N1C(=O)c2cccc3cccc(c23)C1=O` [Compound 2, 2-(2-aminophenyl)-1H-benzo[de]isoquinoline-1,3(2H)-dione], the GI50 in [1] is 14 ± 1.5 µM; in data set [2] it was 0.22 ± 0.02 µM; in data set [3], greater than 50 µM; in data set [4] it was 15 ± 7.5 µM; in data set [5], 0.12 ± 0.03 µM; in [6] it was 21 ± 4 µM. Moreover, the GI50 in [7] was 0.1 ± 0.02 µM; in data set [8], 0.18 ± 0.02 µM; in data set [9] it was 0.7 ± 0.12 µM; in data set [10], greater than 50 µM; in data set [11], greater than 50 µM; in data set [12], greater than 50 µM.
Take `O=c1c2cccc3cccc(c32)c2nc3ccccc3n12` [Compound 5, 7H-Benzo[de]benzo[4,5]imidazo[2,1-a]isoquinolin-7-one]: the “effect on growth in normal MCF10A cells” value in data set [13] is given as “Neither 3, 5, αNF, or quercetin affected growth”. Besides, in [14], the “effect on expression of AhR” value was “not significantly altered”. The “CYP1A1 Fold change (mRNA vs DMSO control)” value in [15] (0.02 μM) worked out at 12 fold; in data set [15] (1.0 μM) it was 15 fold. In addition, in data set [16], the “CYP1B1 Fold change (mRNA vs DMSO control)” value worked out at 4.6 fold.
`O=c1c2cccc3cccc(c32)c2nc3ccc(Cl)cc3n12` [Compound 3, 10-Chloro-7H-benzo[de]benzo[4,5]imidazo[2,1-a]isoquinolin-7-one]: the “effect on growth in normal MCF10A cells” value in data set [13] is listed as “Neither 3, 5, αNF, or quercetin affected growth”. Also, the “effect on expression of AhR” value in data set [14] was “not significantly altered”. Further, the “CYP1A1 Fold change (mRNA vs DMSO control)” value is reported as 18 fold in data set [15] (0.2 μM) and 20 fold in [15] (1.0 μM). Further, the “CYP1B1 Fold change (mRNA vs DMSO control)” value in data set [16] is reported as 3.7 fold.
